Source: US4533665A, “[[Bis(aryl)methylene]-1-piperidinyl]alkyl-pyrimidinones” (Janssen Pharmaceutica, priority 1984, dated 1985)
Structures can show the parent of a compound that is named as a salt.

Each compound was assayed against T1, S2-receptor (Rattus norvegicus, UniProt P14842) (assay: antagonistic activity on the effect of serotonin on the caudal artery of the rat (caudal artery test)). Details: rat caudal artery strips; serotonin 40 ng/ml; 5 minutes after adding the drug; read-out: ED50 (minimal concentration which reduces the amplitude of the serotonin-induced contraction to at least 50% of its normal value) (converted).
T1 construct: Caudal arteries from fasted male rats; from tissue; host or cells: rat caudal artery, helical strips
Description: ANTAGONISTIC ACTIVITY ON THE EFFECT OF SEROTONIN ON THE CAUDAL ARTERY OF THE RAT
Caudal arteries from fasted male rats (210-235 g) were used in the test. […] Submaximal contractions of the arterial strips were produced by adding single doses of serotonin (40 ng/ml) to the organ bath for 2 minutes with each time an interval of 10 minutes. The amplitude of the contraction was measured before and 5 minutes after adding the drug. After washing out, the agonist was added again three times in order to see whether the contraction was restored and normalized. […] In this connection the ED50 -values are the minimal concentrations of the concerned drugs which reduce the amplitude of the contraction to at least 50% of its normal value.

T1 sequence (P14842 whole entry): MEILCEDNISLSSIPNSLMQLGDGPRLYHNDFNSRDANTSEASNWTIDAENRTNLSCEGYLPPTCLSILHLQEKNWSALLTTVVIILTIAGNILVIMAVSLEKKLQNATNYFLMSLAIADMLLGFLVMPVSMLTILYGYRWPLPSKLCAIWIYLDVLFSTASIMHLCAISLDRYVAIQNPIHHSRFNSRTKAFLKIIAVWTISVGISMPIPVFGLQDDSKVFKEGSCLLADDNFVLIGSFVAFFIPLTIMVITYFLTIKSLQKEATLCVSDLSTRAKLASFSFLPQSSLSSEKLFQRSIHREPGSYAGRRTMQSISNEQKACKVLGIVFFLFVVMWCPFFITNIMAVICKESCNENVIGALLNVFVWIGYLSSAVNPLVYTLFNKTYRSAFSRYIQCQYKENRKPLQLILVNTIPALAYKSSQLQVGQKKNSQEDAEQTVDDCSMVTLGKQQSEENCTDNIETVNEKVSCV

Row | Structure (SMILES) | IC50
1 | Cc1nc2ccc(Cl)cn2c(=O)c1CCN1CCC(=C(c2ccc(F)cc2)c2ccc(F)cc2)CC1 [Compound 51] | 1.4 pM
2 | Cc1nc2sccn2c(=O)c1CCN1CCC(=C(c2ccc(O)cc2)c2ccc(F)cc2)CC1 [Compound 24] | 0.378 pM
3 | Cc1nc2scc(C)n2c(=O)c1CCN1CCC(=C(c2ccc(F)cc2)c2cccc(F)c2)CC1 [Compound 27] | 0.651 pM
4 | Cc1nc2scc(C)n2c(=O)c1CCN1CCC(=C(c2ccc(F)cc2)c2ccc(Br)cc2)CC1 [Compound 32] | 2.35 pM
5 | Cc1nc2ccccn2c(=O)c1CCN1CCC(=C(c2ccc(F)cc2)c2ccc(F)cc2)CC1 [Compound 2] | 2.76 pM
6 | Cc1nc2ccccn2c(=O)c1CCN1CCC(=C(c2ccc(F)cc2)c2cccc(C(F)(F)F)c2)CC1 [Compound 31] | 4.79 pM
7 | COC1CN(CCc2c(C)nc3ccccn3c2=O)CCC1=C(c1ccc(F)cc1)c1ccc(F)cc1 (stereo not drawn) [Compound 62] | 5.58 pM
8 | Cc1ccc(C(=C2CCN(CCc3c(C)nc4scc(C)n4c3=O)CC2)c2ccc(F)cc2)cc1 [Compound 38] | 0.656 pM
9 | Cc1ccc(C(=C2CCN(CCc3c(C)nc4n(c3=O)CCS4)CC2)c2ccc(F)cc2)cc1 [Compound 47] | 0.673 pM
10 | Cc1ccc(C(=C2CCN(CCc3c(C)nc4n(c3=O)CCCC4)CC2)c2ccc(F)cc2)cc1 [Compound 42] | 4.66 pM
11 | Cc1nc2sccn2c(=O)c1CCN1CCC(=C(c2ccccc2)c2ccccc2)CC1 [Compound 4] | 0.362 pM
12 | Cc1nc2n(c(=O)c1CCN1CCC(=C(c3ccc(F)cc3)c3ccc(Br)cc3)CC1)CCS2 [Compound 44] | 1.04 pM
13 | Cc1ccn2c(=O)c(CCN3CCC(=C(c4ccc(F)cc4)c4ccc(F)cc4)CC3)c(C)nc2c1 [Compound 59] | 0.659 pM
14 | Cc1nc2n(c(=O)c1CCN1CCC(=C(c3ccc(O)cc3)c3ccc(F)cc3)CC1)CCCC2 [Compound 39] | 1.33 pM
15 | Cc1nc2scc(C)n2c(=O)c1CCN1CCC(=C(c2ccc(F)cc2)c2cccc(Cl)c2)CC1 [Compound 7] | 1.24 pM
16 | Cc1nc2ccccn2c(=O)c1CCN1CCC(=C(c2ccc(F)cc2)c2ccc(Cl)cc2)CC1 [Compound 13] | 2.56 pM
17 | Cc1nc2n(c(=O)c1CCN1CCC(=C(c3ccc(F)cc3)c3ccc(F)cc3)CC1)CCCS2 [Compound 29] | 0.648 pM
18 | Cc1ccc(C(=C2CCN(CCc3c(C)nc4sccn4c3=O)CC2)c2ccc(F)cc2)cc1 [Compound 49] | 0.676 pM
19 | Cc1ccc(C(=C2CCN(CCc3c(C)nc4ccccn4c3=O)CC2)c2ccc(F)cc2)cc1 [Compound 41] | 0.684 pM
20 | Cc1nc2ccccn2c(=O)c1CCN1CCC(=C(c2ccc(F)cc2)c2ccc(Br)cc2)CC1 [Compound 45] | 2.44 pM
21 | Cc1ccc2nc(C)c(CCN3CCC(=C(c4ccc(F)cc4)c4ccc(F)cc4)CC3)c(=O)n2c1 [Compound 50] | 1.46 pM
22 | Cc1cc(C)n2c(=O)c(CCN3CCC(=C(c4ccc(F)cc4)c4ccc(F)cc4)CC3)c(C)nc2c1 [Compound 55] | 2.6 pM
23 | Cc1nc2n(c(=O)c1CCN1CCC(=C(c3ccc(F)cc3)c3ccc(Br)cc3)CC1)CCCS2 [Compound 33] | 5.05 pM

Now from value to compound:

Row | IC50 | Structure (SMILES)
24 | 1.46 pM | Cc1nc2ccc(N)cn2c(=O)c1CCN1CCC(=C(c2ccc(F)cc2)c2ccc(F)cc2)CC1 [Compound 141, 7-amino-3-[2-[4-[bis(4-fluorophenyl)methylene]-1-piperidinyl]ethyl]-2-methyl-4H-pyrido[1,2-a]-pyrimidin-4-one]
25 | 1.08 pM | Cc1nc2n(c(=O)c1CCN1CCC(=C(c3ccccc3)c3ccccc3)CC1)CCS2 [Compound 107, 6-[2-[4-(diphenylmethylene)-1-piperidinyl]ethyl]-2,3-dihydro-7-methyl-5H-thiazolo[3,2-a]pyrimidin-5-one dihydrochloride]
26 | < 1.33 pM | Cc1nc2scc(C)n2c(=O)c1CCN1CCC(=C(c2ccccc2)c2ccc(F)cc2)CC1 [Compound 117]
27 | 5.44 pM | Cc1nc2n(c(=O)c1CCN1CCC(=C(c3ccccc3)c3ccc(O)cc3)CC1)CCS2 [Compound 73]
28 | 1.17 pM | Cc1nc2n(c(=O)c1CCN1CCC(=C(c3ccc(F)cc3)c3ccc(F)cc3)CC1)CCS2 [Compound 113]
29 | 2.31 pM | Cc1nc2scc(C)n2c(=O)c1CCN1CCC(=C(c2ccc(F)cc2)c2cccc(C(F)(F)F)c2)CC1 [Compound 119]
30 | 0.175 pM | Cc1ccc(C(=C2CCN(CCc3c(C)nc4n(c3=O)CCS4)CC2)c2ccccc2)cc1 [Compound 130]
31 | 1.19 pM | Cc1cccc(C(=C2CCN(CCc3c(C)nc4n(c3=O)CCCS4)CC2)c2ccccc2)c1 [Compound 70]
32 | 0.656 pM | Cc1cccc(C(=C2CCN(CCc3c(C)nc4scc(C)n4c3=O)CC2)c2ccc(F)cc2)c1 [Compound 122]
33 | 2.36 pM | Cc1nc2n(c(=O)c1CCN1CCC(=C(c3ccc(F)cc3)c3cccc(C(F)(F)F)c3)CC1)CCS2 [Compound 118]
34 | 0.323 pM | Cc1nc2sccn2c(=O)c1CCN1CCC(=C(c2ccccc2)c2ccc(F)cc2)CC1 [Compound 139, 6-[2-[4-[(4-fluorophenyl)phenylmethylene]-1-piperidinyl]ethyl]-7-methyl-5H-thiazolo[3,2-a]pyrimidin-5-one monohydrochloride]
35 | < 4.96 pM | Cc1nc2ccccn2c(=O)c1CCN1CCC(=C(c2ccccc2)c2cccc(C(F)(F)F)c2)CC1 [Compound 87]
36 | 2.74 pM | Cc1nc2scc(C)n2c(=O)c1CCN1CCC(=C(c2ccc(F)cc2)c2cccnc2)CC1 [Compound 124]
37 | 1.51 pM | Cc1nc2scc(C)n2c(=O)c1CCN1CCC(=C(c2ccccc2)c2ccc(O)cc2)CC1 [Compound 72]
38 | 0.158 pM | Cc1ccc(C(=C2CCN(CCc3c(C)nc4sccn4c3=O)CC2)c2ccccc2)cc1 [Compound 66]
39 | 1.39 pM | Cc1nc2n(c(=O)c1CCN1CCC(=C(c3ccccc3)c3cccc(C(F)(F)F)c3)CC1)CCS2 [Compound 90]
40 | < 4.77 pM | Cc1nc2scc(C)n2c(=O)c1CCN1CCC(=C(c2ccccc2)c2cccc(C(F)(F)F)c2)CC1 [Compound 85]
41 | 2.65 pM | Cc1cccc(C(=C2CCN(CCc3c(C)nc4n(c3=O)CCCS4)CC2)c2ccc(F)cc2)c1 [Compound 121]
42 | 0.654 pM | Cc1cccc(C(=C2CCN(CCc3c(C)nc4n(c3=O)CCCS4)CC2)c2ccc(F)cc2)c1 [Compound 123]
43 | 0.702 pM | Cc1nc2scc(C)n2c(=O)c1CCN1CCC(=C(c2ccccc2)c2ccccc2)CC1 [Compound 105, 6-[2-[4-(diphenylmethylene)-1-piperidinyl]ethyl]-3,7-dimethyl-5H-thiazolo[3,2-a]pyrimidin-5-one]
44 | 2.32 pM | COc1ccc(C(=C2CCN(CCc3c(C)nc4n(c3=O)CCCC4)CC2)c2ccc(F)cc2)cc1 [Compound 146, 3-[2-[4-[(4-fluorophenyl)(4-methoxyphenyl)methylene]-1-piperidinyl]ethyl]-6,7,8,9-tetrahydro-2-methyl-4H-pyrido[1,2-a]pyrimidin-4-one dihydrochloride]
45 | 2.82 pM | Cc1nc2n(c(=O)c1CCN1CCC(=C(c3ccccc3)c3ccc(F)cc3)CC1)CCS2 [Compound 116]
46 | 1.03 pM | Cc1nc2n(c(=O)c1CCN1CCC(=C(c3ccc(F)cc3)c3cccc(C(F)(F)F)c3)CC1)CCCS2 [Compound 120]
47 | 0.49 pM | Cc1ccc(C(=C2CCN(CCc3c(C)nc4scc(C)n4c3=O)CC2)c2ccccc2)cc1 [Compound 129]
48 | 2.25 pM | COc1ccc(C(=C2CCN(CCc3c(C)nc4n(c3=O)CCCS4)CC2)c2ccc(F)cc2)cc1 [Compound 145, 7-[2-[4-[(4-fluorophenyl)(4-methoxyphenyl)methylene]-1-piperidinyl]ethyl]-3,4-dihydro-8-methyl-2H,6H-pyrimido[2,1-b][1,3]thiazin-6-one dihydrochloride]
